Experimental data from patent publication US12528815B2, “5-amino-8-(4-pyridyl)-[1,2,4]triazolo[4,3-c]pyrimidin-3-one compounds for use against cancer” (Nxera Pharma UK Limited, priority 2020, dated 2026).

Columns and labels:
[1] = molecular target: T1, human adenosine A1 receptor (Homo sapiens, UniProt P30542); test: Inhibition binding assay, human adenosine A1 receptor membranes, [3H]DPCPX; settings: 1 nM [3H]DPCPX, 25° C., 1 h; IC50 converted to Ki with Cheng-Prusoff; read-out: A1 pKi (converted)
T1 construct: expressed in transfected cells; host or cells: HEK293 cells infected with BacMam (the same paragraph also labels the preparation CHO-hA1)
T1 sequence (P30542 1-326): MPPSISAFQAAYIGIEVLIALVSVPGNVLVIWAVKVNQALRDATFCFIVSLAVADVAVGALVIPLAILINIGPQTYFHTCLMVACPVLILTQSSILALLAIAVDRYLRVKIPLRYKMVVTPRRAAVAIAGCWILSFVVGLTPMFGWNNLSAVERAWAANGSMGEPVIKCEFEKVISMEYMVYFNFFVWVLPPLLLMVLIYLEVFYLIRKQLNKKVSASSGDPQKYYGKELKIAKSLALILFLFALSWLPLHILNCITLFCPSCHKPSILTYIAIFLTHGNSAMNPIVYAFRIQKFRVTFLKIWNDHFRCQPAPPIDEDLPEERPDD
Description: (§1) Inhibition binding assays were performed using 0.2 μg of membranes prepared from HEK293 cells infected with BacMam human adenosine A2A receptor or 1.4 μg of membranes prepared from HEK293 cells infected with BacMam human adenosine A1 receptor. Membranes were incubated in 50 mM Tris-HCl (HEK293-hA2A; pH 7.4) or 50 mM Tris-HCl, 100 mM NaCl, 10 mM MgCl2 (CHO-hA1; pH 7.4) in the presence of varying concentrations of test compound and 1 nM [^3H]ZM241385 (HEK293-hA2A) or [^3H]DPCPX (CHO-hA1) at 25° C. for 1 h. The assay was then terminated by rapid filtration onto GF/B grade Unifilter plates using a TomTec cell harvester, followed by 5×0.5 ml washes with ddH2O. Nonspecific binding was defined in the presence of 1 μM CGS15943 (HEK293-hA2A) or 1 μM DPCPX (CHO-hA1). Bound radioactivity was determined by liquid scintillation counting and inhibition curves were analysed using a four-parameter logistic equation. IC50 values were converted to Ki values with the Cheng-Prusoff equation using a KD value derived from saturation binding studies.

[2] = molecular target: T2, human adenosine A2A receptor (Homo sapiens, UniProt P29274); test: Inhibition binding assay, human adenosine A2A receptor membranes, [3H]ZM241385; settings: 1 nM [3H]ZM241385, HEK293-hA2A membranes, 25° C., 1 h; IC50 converted to Ki with Cheng-Prusoff; read-out: A2A pKi (converted)
T2 construct: expressed in transfected cells; host or cells: HEK293 cells infected with BacMam
T2 sequence (P29274 whole entry): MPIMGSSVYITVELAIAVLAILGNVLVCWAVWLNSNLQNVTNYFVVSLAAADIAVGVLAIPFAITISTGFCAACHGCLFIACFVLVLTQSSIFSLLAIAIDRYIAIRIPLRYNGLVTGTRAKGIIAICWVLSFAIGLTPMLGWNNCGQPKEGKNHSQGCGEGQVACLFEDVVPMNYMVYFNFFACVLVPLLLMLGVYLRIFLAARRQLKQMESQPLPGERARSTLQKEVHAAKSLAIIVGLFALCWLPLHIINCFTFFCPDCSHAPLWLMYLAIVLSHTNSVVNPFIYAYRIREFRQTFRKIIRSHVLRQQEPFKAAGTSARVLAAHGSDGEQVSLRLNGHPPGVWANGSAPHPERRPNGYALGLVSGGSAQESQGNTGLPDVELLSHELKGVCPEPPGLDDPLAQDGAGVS
Description: as §1

Ki [1]	Ki [2]	Compound
398 nM	20 nM	COC(=O)CCN1CCC(CCn2nc3c(-c4cc(C)nc(C)c4)c(-c4ccccc4)nc(N)n3c2=O)CC1 [Example 2-109, methyl 3-[4-[2-[5-amino-8-(2,6-dimethyl-4-pyridyl)-3-oxo-7-phenyl-[1,2,4]triazolo[4,3-c]pyrimidin-2-yl]ethyl]-1-piperidyl]propanoate]
316 nM	0.501 nM	Cc1cc(-c2c(-c3ccccc3)nc(N)n3c(=O)n(CC4CCCOC4)nc23)cc(C)n1 (stereo not shown) [Example 2-81, 5-amino-8-(2,6-dimethyl-4-pyridyl)-7-phenyl-2-(tetrahydropyran-3-ylmethyl)-[1,2,4]triazolo[4,3-c]pyrimidin-3-one]
1 nM	0.251 nM	Cc1cc(-c2c(-c3ccccc3)nc(N)n3c(=O)n(Cc4ccccc4SC(F)F)nc23)cc(C)n1 [Example 1-16, 5-amino-2-[[2-(difluoromethylsulfanyl)phenyl]methyl]-8-(2,6-dimethyl-4-pyridyl)-7-phenyl-[1,2,4]triazolo[4,3-c]pyrimidin-3-one]
794 nM	31.6 nM	COC(=O)c1ccc(CCn2nc3c(-c4cc(C)nc(C)c4)c(-c4ccccc4)nc(N)n3c2=O)cc1 [Example 1-84, methyl 4-[2-[5-amino-8-(2,6-dimethyl-4-pyridyl)-3-oxo-7-phenyl-[1,2,4]triazolo[4,3-c]pyrimidin-2-yl]ethyl]benzoate]
> 3980 nM	63.1 nM	Cc1ccc(NC2CCN(CCn3nc4c(-c5cc(C)nc(C)c5)c(-c5ccccc5)nc(N)n4c3=O)CC2)nc1 [Example 1-97, 5-amino-8-(2,6-dimethyl-4-pyridyl)-2-[2-[4-[(5-methyl-2-pyridyl)amino]-1-piperidyl]ethyl]-7-phenyl-[1,2,4]triazolo[4,3-c]pyrimidin-3-one]
63.1 nM	0.631 nM	Cc1cc(-c2c(-c3ccccc3)nc(N)n3c(=O)n(Cc4ncc(F)cc4Cl)nc23)cc(C)n1 [Example 1-39, 5-amino-2-[(3-chloro-5-fluoro-2-pyridyl)methyl]-8-(2,6-dimethyl-4-pyridyl)-7-phenyl-[1,2,4]triazolo[4,3-c]pyrimidin-3-one]
794 nM	15.8 nM	Cc1cc(-c2c(-c3ccccc3)nc(N)n3c(=O)n([C@H](C)c4ccncc4)nc23)cc(C)n1 [Example 1-26, (R)-5-amino-8-(2,6-dimethyl-4-pyridyl)-7-phenyl-2-[1-(4-pyridyl)ethyl]-[1,2,4]triazolo[4,3-c]pyrimidin-3-one]
794 nM	31.6 nM	Cc1cc(-c2c(-c3ccccc3)nc(N)n3c(=O)n(CCN4CCOCC4)nc23)cc(C)n1 [Example 2-99, 5-amino-8-(2,6-dimethyl-4-pyridyl)-2-(2-morpholinoethyl)-7-phenyl-[1,2,4]triazolo[4,3-c]pyrimidin-3-one]
> 3160 nM	398 nM	Cc1cc(-c2c(-c3ccccc3)nc(N)n3c(=O)n(CC4CCNCC4)nc23)cc(C)n1 [Example 2-68, 5-amino-8-(2,6-dimethyl-4-pyridyl)-7-phenyl-2-(4-piperidylmethyl)-[1,2,4]triazolo[4,3-c]pyrimidin-3-one]
158 nM	2 nM	Cc1cc(-c2c(-c3ccccc3)nc(N)n3c(=O)n(CC4CCCOC4)nc23)cc(C)n1 (single isomer, unassigned) [Example 2-81-iso-1, 5-amino-8-(2,6-dimethyl-4-pyridyl)-7-phenyl-2-(tetrahydropyran-3-ylmethyl)-[1,2,4]triazolo[4,3-c]pyrimidin-3-one]
398 nM	2.51 nM	COc1cc(-c2c(-c3ccccc3)nc(N)n3c(=O)n(Cc4ccc(F)cn4)nc23)cc(CO)n1 [Example 1-73, 5-amino-2-[(5-fluoro-2-pyridyl)methyl]-8-[2-(hydroxymethyl)-6-methoxy-4-pyridyl]-7-phenyl-[1,2,4]triazolo[4,3-c]pyrimidin-3-one]
> 3980 nM	631 nM	Cc1cc(-c2c(-c3ccc(F)cc3)nc(N)n3c(=O)n(Cc4ccc(C#N)cn4)nc23)cc(CO)n1 [Example 1-63, 6-[[5-amino-7-(4-fluorophenyl)-8-[2-(hydroxymethyl)-6-methyl-4-pyridyl]-3-oxo-[1,2,4]triazolo[4,3-c]pyrimidin-2-yl]methyl]pyridine-3-carbonitrile]
> 3160 nM	20 nM	Cc1cc(-c2c(-c3ccc(C#N)cc3)nc(N)n3c(=O)n(CCC(F)(F)F)nc23)cc(C)n1 [Example 2-36, 4-[5-amino-8-(2,6-dimethyl-4-pyridyl)-3-oxo-2-(3,3,3-trifluoropropyl)-[1,2,4]triazolo[4,3-c]pyrimidin-7-yl]benzonitrile]
200 nM	3.98 nM	Cc1cc(-c2c(-c3ccccc3)nc(N)n3c(=O)n(Cc4cccnn4)nc23)cc(CO)n1 [Example 1-56, 5-amino-8-[2-(hydroxymethyl)-6-methyl-4-pyridyl]-7-phenyl-2-(pyridazin-3-ylmethyl)-[1,2,4]triazolo[4,3-c]pyrimidin-3-one]
> 3160 nM	398 nM	C/C=C(/C)c1nc(N)n2c(=O)n(CCC(F)(F)F)nc2c1-c1cc(C)nc(C)c1 [Example 3-9, 5-amino-8-(2,6-dimethyl-4-pyridyl)-7-[(Z)-1-methylprop-1-enyl]-2-(3,3,3-trifluoropropyl)-[1,2,4]triazolo[4,3-c]pyrimidin-3-one]
398 nM	0.501 nM	[2H]c1c([2H])c([2H])c(-c2nc(N)n3c(=O)n(CCC(F)(F)F)nc3c2-c2cc(C)nc(C)c2)c([2H])c1[2H] [Example 2-32, 5-amino-8-(2,6-dimethyl-4-pyridyl)-7-(2,3,4,5,6-pentadeuteriophenyl)-2-(3,3,3-trifluoropropyl)-[1,2,4]triazolo[4,3-c]pyrimidin-3-one]
100 nM	2 nM	Cc1cc(-c2c(-c3ccccc3)nc(N)n3c(=O)n(C4Cc5ccc(N)cc5C4)nc23)cc(C)n1 (stereo not shown) [Example 1-104, 5-amino-2-(5-aminoindan-2-yl)-8-(2,6-dimethyl-4-pyridyl)-7-phenyl-[1,2,4]triazolo[4,3-c]pyrimidin-3-one]
251 nM	0.794 nM	Nc1nc(-c2ccccc2)c(-c2cc(Cl)nc(CO)c2)c2nn(Cc3ccc(F)cn3)c(=O)n12 [Example 1-69, 5-amino-8-[2-chloro-6-(hydroxymethyl)-4-pyridyl]-2-[(5-fluoro-2-pyridyl)methyl]-7-phenyl-[1,2,4]triazolo[4,3-c]pyrimidin-3-one]
> 3160 nM	200 nM	Cc1cc(-c2c(-c3ccccc3)nc(N)n3c(=O)n(CC4CCN(C)CC4)nc23)cc(C)n1 [Example 2-78, 5-amino-8-(2,6-dimethyl-4-pyridyl)-2-[(1-methyl-4-piperidyl)methyl]-7-phenyl-[1,2,4]triazolo[4,3-c]pyrimidin-3-one]
316 nM	158 nM	Cc1cc(-c2c(-c3ccccc3)nc(N)n3c(=O)n(C(CN)Cc4ccc(F)cc4F)nc23)cc(C)n1 (stereo not shown) [Example 1-100, 5-amino-2-[1-(aminomethyl)-2-(2,4-difluorophenyl)ethyl]-8-(2,6-dimethyl-4-pyridyl)-7-phenyl-[1,2,4]triazolo[4,3-c]pyrimidin-3-one]
316 nM	3.98 nM	Cc1cc(-c2c(-c3ccccc3)nc(N)n3c(=O)n(CC45CC(F)(C4)C5)nc23)cc(CO)n1 [Example 2-59, 5-amino-2-[(3-fluoro-1-bicyclo[1.1.1]pentanyl)methyl]-8-[2-(hydroxymethyl)-6-methyl-4-pyridyl]-7-phenyl-[1,2,4]triazolo[4,3-c]pyrimidin-3-one]
126 nM	2.51 nM	Cc1cc(-c2c(-c3ccccc3)nc(N)n3c(=O)n(Cc4ccc(F)cn4)nc23)cc(C(F)(F)F)n1 [Example 1-72, 5-amino-2-[(5-fluoro-2-pyridyl)methyl]-8-[2-methyl-6-(trifluoromethyl)-4-pyridyl]-7-phenyl-[1,2,4]triazolo[4,3-c]pyrimidin-3-one]
> 2510 nM	100 nM	CCC(c1ccc(F)cn1)n1nc2c(-c3cc(C)nc(CO)c3)c(-c3ccccc3)nc(N)n2c1=O (single isomer, unassigned) [1-46 iso-2, 5-amino-2-[1-(5-fluoro-2-pyridyl)propyl]-8-[2-(hydroxymethyl)-6-methyl-4-pyridyl]-7-phenyl-[1,2,4]triazolo[4,3-c]pyrimidin-3-one]
